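Growth conditions: 96-well plates. Treatment: test compound, 48 hours, 5 concentrations. Analysis: linear interpolation between bracketing concentrations; unreached endpoints set to highest concentration. TGI denotes the concentration required for complete inhibition of growth.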

What all share (assay): growth of human tumour cells (NCI), 48 h
The subject of test [1] is A498 renal.
The subject of test [2] is A549 NSCLC.
The subject of test [3] is ACHN renal.
Test [4] relates to BT-549 breast.
For test [5], the system named is CAKI-1 renal.
For test [6], the system named is CCRF-CEM leukemia.
The test system of test [7] is COLO 205 colon.
For test [8], the system named is EKVX NSCLC.
Test [9] deals with HCC-2998 colon.
Test [10] has as its system HS 578T breast.
The subject of test [11] is MCF7 breast.
The test system of test [12] is MDA-MB-435.
Test [13] has as its system OVCAR-8 ovarian.
Test [14] deals with SF-268 CNS.
The subject of test [15] is SNB-19 CNS.
In test [16] the test system is SW-620 colon.
Test [17] concerns UACC-257 melanoma.
Test [18] relates to NCI-H226 lung.
Test [19] has as its system SF-295 CNS.
Test [20] concerns UACC-62 melanoma.

For the molecule `COC(=O)/C=C\Sc1ccn(/C=C\C(=O)OC)c(=S)n1`, the TGI in test [1] is 35.6 µM; in test [2], 50.7 µM; in [3], 32.2 µM; in [4], 44.9 µM; in [5], 31.9 µM; in [6] it was above 100 µM. The TGI was above 100 µM in test [7]; 68.2 µM in test [8]; above 100 µM in test [9]; 78.9 µM in [10]; 36.5 µM in test [11]; 86.6 µM in test [12]. Besides, the TGI in [13] was 38.1 µM; in test [14], 65.9 µM; in test [15], 41.6 µM; in [16], 56.5 µM; in test [17] it was above 100 µM.
With `O=C(CCCn1cnc([N+](=O)[O-])n1)NCCn1ccnc1[N+](=O)[O-]`, the TGI in test [2], in test [3], in test [4], in test [5], in test [6] and in [7] was above 100 µM throughout. The TGI in [8], in test [10], in test [11], in [18], in test [14] and in test [19] was above 100 µM each time. Also, the TGI in [16], in test [17] and in test [20] was above 100 µM in each case.
With `CC(=O)OC(Cc1cc(C=C(C(F)(F)F)C(F)(F)F)cc(C)n1)(C(F)(F)F)C(F)(F)F`, the TGI in test [1] came out at 3.3 µM; in [2] it was 12.4 µM; in [3] it was 2.84 µM; in test [4], 4.96 µM; in test [5], 3.45 µM; in [7], 2.99 µM. Also, the TGI in [8] is 5.87 µM; in [9], 13.3 µM; in test [10], 18 µM; in test [11] it was 0.97 µM; in test [12], 2.83 µM; in [18], 3.49 µM. Besides, the TGI in [13] is above 100 µM; in test [14], 5.81 µM; in test [19], 8.21 µM; in test [15], 4.38 µM; in test [16] it was 5.67 µM; in [20], 3.54 µM.
`CC1(C)OP23(NC(=O)OC2(C(F)(F)F)c2ccccc2O3)OC1(C)C` (centres undefined): the TGI in [2], in test [3], in test [6], in test [18], in test [13] and in test [14] was above 100 µM in each case. The TGI in test [19], in test [15], in test [17] and in test [20] was above 100 µM throughout.
Consider `COc1ccc2[nH]c(C(=O)N3CC(CCl)c4ccc(N)cc43)cc2c1` (centres undefined), for which the TGI in [2] was above 86.9 µM; in [3], 0.375 µM; in test [4] it was 6.97 µM; in test [5], 0.299 µM; in [6] it was 1.44 µM; in [8], 2.78 µM. Also, the TGI was 0.383 µM in [9]; 1.32 µM in test [10]; above 39.1 µM in test [11]; 0.405 µM in test [12]; above 100 µM in [18]; above 68.9 µM in [13]. Moreover, the figures for the TGI in [15], in [16] and in test [20] were above 44.5 µM, above 100 µM and 0.376 µM, respectively.
Take `CN(C)c1ccc(N2C(=S)SC(=Nc3ccccc3)C2=Nc2ccccc2)cc1`: the TGI in test [1], in test [4], in test [5], in test [6], in test [7] and in test [9] was above 100 µM throughout. Also, the TGI in test [10], in test [11], in test [12], in test [18], in test [13] and in test [19] was above 100 µM in each case. Moreover, the TGI in test [15] and in test [20] was above 100 µM throughout.
